Source: patent US11802120B2, “Fused cyclic urea derivatives as CRHR2 antagonist” (RaQualia Pharma Inc., priority 2018, dated 2023)

Molecular target: T1, human CRHR2-alpha (Homo sapiens, UniProt Q13324)
T1 sequence (Q13324 1-411): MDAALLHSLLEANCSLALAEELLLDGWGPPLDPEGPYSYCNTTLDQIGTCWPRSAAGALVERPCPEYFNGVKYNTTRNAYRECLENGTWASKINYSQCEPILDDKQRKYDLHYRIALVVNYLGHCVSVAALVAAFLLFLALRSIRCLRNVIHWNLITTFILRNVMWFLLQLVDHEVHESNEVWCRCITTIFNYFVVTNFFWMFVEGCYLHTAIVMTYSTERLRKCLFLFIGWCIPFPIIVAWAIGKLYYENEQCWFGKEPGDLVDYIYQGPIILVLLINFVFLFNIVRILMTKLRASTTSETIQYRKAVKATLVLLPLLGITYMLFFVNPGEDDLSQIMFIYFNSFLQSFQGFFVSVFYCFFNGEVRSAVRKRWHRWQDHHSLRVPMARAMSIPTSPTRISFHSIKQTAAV
Assay: cAMP functional assay for human CRHR2 (LANCE Ultra cAMP, TR-FRET)
Format: cell-based
Conditions: CHO-K1 cells expressing human CRHR2-alpha, agonist human urocortin2 at EC80, cAMP; read-out: IC50 against CRHR2
Summary of the method: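 CHO-K1 stable lines; 4,000 cells/well; compound 30 min, 25° C; EC80 agonist (human urocortin2 → CRHR2, CRF → CRHR1) 30 min, 25° C; buffer HBSS/0.1% BSA/0.5 mM IBMX/5 mM Hepes pH 7.4; Eu-cAMP tracer + ULight antibody 60 min; TR-FRET read; IC50 from % inhibition curves.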

IC50, < 300 nM:
Cc1ncc(Cl)cc1C(=O)N[C@H]1CC[C@H](Cn2c(=O)n(-c3cccc(N(C)C)c3C#N)c3ccccc32)CC1 [Example 309, 5-choro-N-((1r,4r)-4-((3-(2-cyano-3-(dimethylamino)phenyl)-2-oxo-2,3-dihydro-1H-benzo[d]imidazol-1-yl)methyl)cyclohexyl)-2-methylnicotinamide]
COc1ccc(-n2c(=O)n(C[C@H]3CC[C@H](NC(=O)c4cc(Cl)cnc4C)CC3)c3ccccc32)c(C)n1 [Example 149, 5-chloro-N-((1r,4r)-4-((3-(6-methoxy-2-methylpyridin-3-yl)-2-oxo-2,3-dihydro-1H-benzo[d]imidazol-1-yl)methyl)cyclohexyl)-2-methylnicotinamide]
Cc1ncc(Cl)cc1C(=O)N[C@H]1CC[C@H](Cn2c(=O)n(-c3ccc(N4CCCC4=O)nc3)c3ccccc32)CC1 [Example 111, 5-chloro-2-methyl-N-((1r,4r)-4-((2-oxo-3-(6-(2-oxopyrrolidin-1-yl)pyridin-3-yl)-2,3-dihydro-1H-benzo[d]imidazol-1-yl)methyl)cyclohexyl)nicotinamide]
Cc1ncc(Cl)cc1C(=O)N[C@H]1CC[C@H](Cn2c(=O)n(-c3ccc(-c4cnco4)cc3)c3ccccc32)CC1 [Example 450, 5-chloro-2-methyl-N-((1r,4r)-4-((3-(4-(oxazol-5-yl)phenyl)-2-oxo-2,3-dihydro-1H-benzo [d]imidazol-1-yl)methyl)cyclo-hexyl)nicotinamide]
CNC(=O)c1ccc(-n2c(=O)n(C[C@H]3CC[C@H](NC(=O)c4cc(Cl)cnc4C4CC4)CC3)c3ccccc32)cn1 [Example 317, 5-(3-(((1r,4r)-4-(5-chloro-2-cyclopropylnicotinamido)cyclohexyl)methyl)-2-oxo-2,3-dihydro-1H-benzo[d]imidazol-1-yl)-N-methyl-picolinamide]
COc1ccc(-n2c(=O)n(C[C@H]3CC[C@H](NC(=O)c4cc(Cl)cnc4C(F)(F)F)CC3)c3ccccc32)cn1 [Example 228, 5-chloro-N-((1r,4r)-4-((3-(6-methoxypyridin-3-yl)-2-oxo-2,3-dihydro-1H-benzo[d]imidazol-1-yl)methyl)cyclo-hexyl)-2-(trifluoromethyl) nicotinamide]
N#Cc1ccccc1-n1c(=O)n(C[C@H]2CC[C@H](NC(=O)c3cc(Cl)cnc3C(F)F)CC2)c2ccccc21 [Example 499, 5-chloro-N-((1r,4r)-4-((3-(2-cyanophenyl)-2-oxo-2,3-dihydro-1H-benzo[d]imidazol-1-yl)methyl)cyclo-hexyl)-2-(difluoromethyl) nicotinamide]
Cc1ncc(Cl)cc1C(=O)N[C@H]1CC[C@H](Cn2c(=O)n(-c3ccncc3Cl)c3ccccc32)CC1 [Example 262, 5-chloro-N-((1r,4r)-4-((3-(3-chloropyridin-4-yl)-2-oxo-2,3-dihydro-1H-benzo[d]imidazol-1-yl)methyl)cyclo-hexyl)-2-methylnicotinamide]
Cc1ncc(Cl)cc1C(=O)N[C@H]1CC[C@H](Cn2c(=O)n(-c3ccc4c(c3)c(C)nn4C)c3ccccc32)CC1 [Example 213, 5-chloro-N-((1r,4r)-4-((3-(1,3-dimethyl-1H-indazol-5-yl)-2-oxo-2,3-dihydro-1H-benzo[d]imidazol-1-yl)methyl)cyclohexyl)-2-methylnicotinamide]
Cc1ncc(Cl)cc1C(=O)N[C@H]1CC[C@H](Cn2c(=O)n(-c3ccnc(-c4cnn(C)c4)c3)c3ccccc32)CC1 [Example 680, 5-chloro-2-methyl-N-((1r,4r)-4-((3-(2-(1-methyl-1H-pyrazol-4-yl)pyridin-4-yl)-2-oxo-2,3-dihydro-1H-benzo[d]imidazol-1-yl)methyl)cyclohexyl) nicotinamide]
C=Cc1ccc(-n2c(=O)n(C[C@H]3CC[C@H](NC(=O)c4cc(Cl)cnc4C)CC3)c3ccccc32)cn1 [Example 70, 5-chloro-2-methyl-N-((1r,4r)-4-((2-oxo-3-(6-vinylpyridin-3-yl)-2,3-dihydro-1H-benzo[d]imidazol-1-yl)methyl)cyclohexyl)nicotinamide]
Cc1ncc(Cl)cc1C(=O)N[C@H]1CC[C@H](Cn2c(=O)n(-c3ccc4c(c3)oc(=O)n4CC3CC3)c3ccccc32)CC1 [Example 195, 5-chloro-N-((1r,4r)-4-((3-(3-(cyclopropylmethyl)-2-oxo-2,3-dihydrobenzo[d]oxazol-6-yl)-2-oxo-2,3-dihydro-1H-benzo[d]imidazol-1-yl)methyl)cyclohexyl)-2-methylnicotinamide]
Cc1ncc(Cl)cc1C(=O)N[C@H]1CC[C@H](Cn2c(=O)n(-c3ccc(N4CCC4)nc3)c3ccccc32)CC1 [Example 162, N-((1r,4r)-4-((3-(6-(azetidin-1-yl)pyridin-3-yl)-2-oxo-2,3-dihydro-1H-benzo[d]imidazol-1-yl)methyl)cyclo-hexyl)-5-chloro-2-methyl-nicotinamide]
O=C(N[C@H]1CC[C@H](Cn2c(=O)n(-c3cnc(OCCO)c(F)c3)c3ccccc32)CC1)c1cc(Cl)cnc1C(F)F [Example 638, 5-chloro-2-(difluoromethyl)-N-((1r,4r)-4-((3-(5-fluoro-6-(2-hydroxyethoxy)pyridin-3-yl)-2-oxo-2,3-dihydro-1H-benzo[d]imidazol-1-yl)methyl)cyclohexyl)nicotinamide]
Cc1ncc(Cl)cc1C(=O)N[C@H]1CC[C@H](Cn2c(=O)n(-c3ccc(C(=O)Nc4cccnc4)nc3)c3ccccc32)CC1 [Example 177, 5-(3-(((1r,4r)-4-(5-chloro-2-methylnicotinamido)cyclo-hexyl)methyl)-2-oxo-2,3-dihydro-1H-benzo[d]imidazol-1-yl)-N-(pyridin-3-yl) picolinamide]
CNC(=O)c1cc(C)c(-n2c(=O)n(C[C@H]3CC[C@H](NC(=O)c4cc(Cl)cnc4C)CC3)c3ccccc32)cn1 [Example 199, 5-(3-(((1r,4r)-4-(5-chloro-2-methylnicotinamido)cyclo-hexyl)methyl)-2-oxo-2,3-dihydro-1H-benzo[d]imidazol-1-yl)-N,4-dimethylpicolinamide]
Cc1ncc(Cl)cc1C(=O)N[C@H]1CC[C@H](Cn2c(=O)n(-c3ccc4nc(C)n(C)c4c3)c3ccccc32)CC1 [Example 209, 5-chloro-N-((1r,4r)-4-((2′,3′-dimethyl-2-oxo-3′H-[1,5′-bibenzo[d]imidazol]-3(2H)-yl)methyl)cyclohexyl)-2-methylnicotinamide]
O=C(N[C@H]1CC[C@H](Cn2c(=O)n(-c3ccc(N4CCNC4=O)nc3)c3ccccc32)CC1)c1cc(Cl)cnc1C(F)(F)F [Example 640, 5-chloro-N-((1r,4r)-4-((2-oxo-3-(6-(2-oxoimidazolidin-1-yl)pyridin-3-yl)-2,3-dihydro-1H-benzo[d]imidazol-1-yl)methyl)cyclohexyl)-2-(trifluoromethyl) nicotinamide]
Cc1ncc(Cl)cc1C(=O)N[C@H]1CC[C@H](Cn2c(=O)n(-c3ccc4[nH]nc(C)c4c3)c3ncccc32)CC1 [Example 212, 5-chloro-2-methyl-N-((1r,4r)-4-((3-(3-methyl-1H-indazol-5-yl)-2-oxo-2,3-dihydro-1H-imidazo[4,5-b]pyridin-1-yl)methyl)cyclohexyl)nicotinamide]
CNC(=O)c1ccc(-n2c(=O)n(C[C@H]3CC[C@H](NC(=O)c4cc(Cl)cnc4C)CC3)c3cc(F)ccc32)cn1 [Example 226, 5-(3-(((1r,4r)-4-(5-chloro-2-methylnicotinamido)cyclo-hexyl)methyl)-5-fluoro-2-oxo-2,3-dihydro-1H-benzo[d]imidazol-1-yl)-N-methylpicolinamide]
Cc1ncc(Cl)cc1C(=O)N[C@H]1CC[C@H](Cn2c(=O)n(-c3ccc4c(c3)CCC4)c3ncccc32)CC1 [Example 189, 5-chloro-N-((1r,4r)-4-((3-(2,3-dihydro-1H-inden-5-yl)-2-oxo-2,3-dihydro-1H-imidazo[4,5-b]pyridin-1-yl)methyl)cyclohexyl)-2-methylnicotinamide]
Cc1cc2cc(-n3c(=O)n(C[C@H]4CC[C@H](NC(=O)c5cc(Cl)cnc5C(F)F)CC4)c4ccccc43)cnc2n1C [Example 674, 5-chloro-2-(difluoromethyl)-N-((1r,4r)-4-((3-(1,2-dimethyl-1H-pyrrolo[2,3-b]pyridin-5-yl)-2-oxo-2,3-dihydro-1H-benzo[d]imidazol-1-yl)methyl)cyclohexyl)nicotinamide]
C[C@@H](O)COc1ccc(-n2c(=O)n(C[C@H]3CC[C@H](NC(=O)c4cc(Cl)cnc4C(F)F)CC3)c3ccccc32)cn1 [Example 439, 5-chloro-2-(difluoromethyl)-N-((1R,4r)-4-((3-(6-((R)-2-hydroxypropoxy)pyridin-3-yl)-2-oxo-2,3-dihydro-1H-benzo[d]imidazol-1-yl)methyl)cyclohexyl)nicotinamide]
